Read-outs that look alike come from different tables or passages of the source.
Assays:
[1] = tested on: SW480 colon adenocarcinoma cells; set-up: method as in PMID 38426897; conditions: MTT assay, exposure time 96 h; ref [5]; read-out: 50% inhibitory concentration SW480 (chlorido complexes, reference) (converted); cited from earlier work
[2] = tested on: CH1/PA-1 ovarian teratocarcinoma cells; set-up: method as in PMID 38426897; conditions: MTT assay, exposure time 96 h; ref [5]; read-out: 50% inhibitory concentration CH1 (chlorido complexes, reference) (converted); cited from earlier work
[3] = tested on: A549 lung adenocarcinoma cells; set-up: method as in PMID 38426897; conditions: MTT assay, exposure time 96 h; ref [5]; read-out: 50% inhibitory concentration A549 (chlorido complexes, reference) (converted); cited from earlier work
[4] = tested on: SW480 colon adenocarcinoma cells; assay: MTT assay, inhibition of cancer cell growth, SW480; conditions: read-out: 50% inhibitory concentration SW480, exposure time 96 h
Description: (§2) CH1/PA-1 ovarian teratocarcinoma cells (CH1, RRID: CVCL_4992, provided by L. R. Kelland, CRC Center for Cancer Therapeutics, Institute of Cancer Research, Sutton, UK; confirmed by STR profiling as PA-1 ovarian teratocarcinoma cells at Multiplexion, Heidelberg, Germany), SW480 colon adenocarcinoma (RRID: CVCL_0546), and A549 lung adenocarcinoma cells (NCI-H2618, RRID: CVCL_A549; both cell lines were obtained from the American Type Culture Collection (ATCC), Manassas, VA, USA) were grown as adherent cultures in 75-cm^2 culture flasks (Starlab, Hamburg, Germany) by using minimal essential medium (MEM) supplemented with 1 mM sodium pyruvate, 4 mM L-glutamine, 1% (v/v) nonessential amino acids from 100-fold stock (all purchased from Sigma-Aldrich), and 10% heat-inactivated fetal bovine serum (Serana, Pessin, Germany).
(§3) The 3-(4,5-dimethylthiazol-2-yl)-2,5-diphenyl-2H tetrazolium bromide (MTT, Acros Organics, Geel, Belgium) assay was used to detect the cytotoxicity of the compounds after 96-h incubation. For this purpose, cells were harvested from culture flasks by trypsinization, seeded in 100-μL aliquots into 96-well microculture plates (Starlab, UK) in densities of 1 × 10^3 (CH1/PA-1), 2 × 10^3 (SW480), and 3 × 10^3 (A549) cells per well and incubated for 24 h prior to exposure to the test compounds. Stock solutions of test compounds were prepared in DMF, which were then diluted in MEM (not to exceed a final content of 0.5% v/v of organic solvent in the test plates), and serial dilutions were added in aliquots of 100 μL per well. […] After incubation for 4 h, the medium/MTT mixtures were removed, and the produced formazan crystals were dissolved in 150 μL DMSO per well. Optical densities at 550 nm were measured spectrophotometrically with a ELx808 Absorbance Microplate Reader (Bio-Tek, Winooski, VT, USA) by using a reference wavelength of 690 nm to correct for unspecific absorption.

[5] = tested on: CH1/PA-1 ovarian teratocarcinoma cells; assay: MTT assay, inhibition of cancer cell growth, CH1/PA-1; conditions: read-out: 50% inhibitory concentration CH1, exposure time 96 h
Description: as §2, §3

[6] = tested on: A549 lung adenocarcinoma cells; assay: MTT assay, inhibition of cancer cell growth, A549; conditions: read-out: 50% inhibitory concentration A549, exposure time 96 h
Description: as §2, §3

[7] = Solubility in 1% DMF/PBS
From the text: Solubility is an important factor for the application of metallodrugs. DMF was used as solubilizer to allow comparison to the respective chlorido complexes where the usage of DMSO would lead to stable DMSO adducts.
(§1) As the coordinated p-cym and leaving groups are present in all synthesized complexes, we focused on the differently substituted 4-phenylthiazoles for estimated changes in lipophilicity.

[8] = tested on: SW480 cancer cells; assay: Cellular accumulation (ICP-MS) in SW480 cells; conditions: 50 μM, 0.5% DMF in MEM, SW480, exposure time 2 h
Description: as §1
Cellular accumulation of the compounds was studied based on a method described previously with modifications. 1.8 × 10^5 SW480 cells per well were seeded in aliquots of 1 mL of complete MEM (see above) into 12-well plates (CytoOne, tissue culture treated, Starlab) and incubated at 37°C for 24 h. Then, cells were exposed for 2 h at 37°C to 50 μM solutions of the test compounds (containing 0.5% DMF) in fresh 0.5 mL of complete MEM upon exchange of the medium. Afterward, cells were washed three times with 1 mL PBS per well, lysed with 0.4 mL sub-boiled HNO3 per well for 1 h at room temperature, and 0.3 mL of each sample was diluted with 7.7 mL Milli-Q water. Adsorption/desorption controls were prepared in the same manner in cell-free wells. Ruthenium content was quantified by ICP-MS using an ICP-quadrupole MS Agilent 7800 instrument (Agilent Technologies, Waldbronn, Germany) as described previously.

[9] = tested on: SW480 cells; assay: DCFH-DA assay, cellular ROS levels; assay type: cell-based, human; conditions: for Effect on intracellular ROS levels: 2 h, concentration dependent
Description: For this approach, SW480 cells were subjected to the 2′,7′-dichlorofluorescin-diacetate (DCFH-DA) assay.
SW480 colon adenocarcinoma cells were trypsinized for 5 min in a humidified incubator at 37°C and under a 5% CO2 atmosphere. Supplemented MEM was added to stop trypsinization, and cells were centrifuged for 3 min at 1200 rpm (Heraeus Megafuge 1.0R). After cell counting, SW480 cells were seeded in 100-μL aliquots in densities of 2.5 × 10^4 cells/well into 96-well clear flat-bottom microplates (CytoOne, TC-treated, from Starlab). After incubation for 24 h, cells were washed with 200 μL of Hanks' balanced salt solution (HBSS; Sigma-Aldrich; supplemented with 1% heat-inactivated FCS). […] After washing cells with 200 μL of supplemented HBSS, serially diluted test compounds in phenol-red-free Opti-MEM (Gibco), supplemented with 1% heat-inactivated FCS, were added in 200-μl triplicates and tert-butyl hydroperoxide (TBHP) was applied as positive control. […] Blank-corrected values were calculated relative to negative controls (treated with drug-free supplemented Opti-MEM) from three independent experiments.

[10] = tested on: HCT116 multicellular tumor spheroids (3D); assay: Resazurin assay, HCT116 3D multicellular tumor spheroids; conditions: read-out: IC50 3D; HCT116 3D spheroids, resazurin assay, 96 h exposure
Description: (§4) Both models were investigated by the fluorimetric resazurin assay after 96-h exposure.
(§5) HCT116 colorectal carcinoma cells (RRID:CVCL_0291 from ATCC) were cultivated in McCoy's 5A medium, supplemented with 10% heat-inactivated fetal bovine serum and 4 mM L-glutamine.
(§6) For 2D experiments, HCT116 cells were harvested from culture flasks by trypsinization, seeded in 100-μL aliquots into 96-well microculture plates (CytoOne, TC-treated, from Starlab) in densities of 2 × 10^3 cells per well, and incubated for 24 h prior to exposure to the test compounds. […] Stock solutions of test compounds were prepared in DMF, which were then diluted in McCoy's 5A-supplemented medium (not to exceed a final content of 0.5% v/v of organic solvent in the test plates), and serial dilutions were added in aliquots of 100 μL per well. […] After incubation for 4 h, fluorescence was measured with a microplate reader (Bio-Tek, SynergyHT) at a wavelength of 530 nm, additionally using a reference wavelength of 620 nm.

[11] = tested on: HCT116 colorectal cancer cell line (2D); assay: Resazurin assay, HCT116 2D (monolayer) culture; conditions: read-out: IC50 2D, resazurin assay, 96 h exposure
Description: as §4, §5, §6

[12] = tested on: G4 forming sequences (h-Telo, bcl2, hTERT, Kit1, Kit2) and dsDNA; assay: FRET melting assay, G-quadruplex / B-DNA interaction; assay type: binding, human; conditions: 60 mM potassium cacodylate pH 7.4, 2 h incubation
Description: G4s are DNA secondary motifs that play crucial roles in cancer development. […] The complexes were incubated with different G4 forming sequences: one derived from human telomere-forming (h-Telo) and four corresponding to promoter regions of oncogenes, namely, bcl2, hTERT, Kit1, and Kit2. For comparison, a self-complementary sequence called dsDNA was used to represent B-DNA (Table S2).
FRET experiments were conducted using an Applied Biosystems QuantStudio 6 PCR cycler in a 96-well format equipped with a FAM (6-carboxyfluorescein) filter. Oligonucleotide stock solutions, labelled with FAM and TAMRA (6-carboxytetramethylrhodamine) probes, were diluted to the desired concentration in a 60-mM potassium cacodylate buffer (pH 7.4). To fold the oligonucleotides into their B-DNA or G4 topologies, the solutions were heated to 95°C for 5 min and then allowed to cool slowly to room temperature overnight. The final concentration of the oligonucleotides was 0.2 μM, with a total volume of 30 μL in each well. Metal complexes were dissolved in DMF to prepare 2 mM stock solutions and further diluted with the buffer, where DMF concentration never exceeded 0.05%. Mixtures of oligonucleotides and metal compounds were left at room temperature for 2 h. Data were collected twice, each time in duplicate, over a temperature range of 25°C–95°C, with a ramp of 1°C every 30 s. FAM emission data were normalized from 0 to 1 to compare different datasets. After data normalization, we extrapolated the T1/2 values, i.e., the temperature at which normalized FAM emission is 0.5. The DNA concentration is expressed in strands.

Row | Compound | IC50 [1] [µM] | IC50 [2] [µM] | IC50 [3] [µM] | IC50 [4] [µM] | IC50 [5] [µM] | IC50 [6] [µM] | other results
1 | Cc1ccc(C(C)C)cc1.[Cl][Os][c]1ccccc1-c1cscn1 [Compound 2a] | 9.3 | 3 | 17 | – | – | – | –
2 | Cc1ccc(C(C)C)cc1.Cn1cc[n+]([Ru-]2[c]3cc(F)ccc3-c3csc[n+]32)c1.O=[N+]([O-])[O-] [Compound 3b, [((3-κN)-1-Methylimidazole)(4-(4-fluorophenyl)thiazolato-κN,κC2′)(η^6-p-cymene)ruthenium(II)] Nitrate] | – | – | – | 7.9 ± 1.5 | 2.8 ± 0.2 | 20 ± 3 | Solubility [7]: 8.82 mM; Cellular accumulation, fg Ru/cell [8]: 470 ± 71 fg Ru/cell
3 | Cc1ccc(C(C)C)cc1.Fc1ccc(-c2cscn2)[c]([Os][Cl])c1 [Compound 2b] | 7.1 | 2 | 10 | – | – | – | –
4 | Cc1ccc(C(C)C)cc1.Cn1cc[n+]([Os-]2[c]3cc(F)ccc3-c3csc[n+]32)c1.O=[N+]([O-])O [Compound 4b, [((3-κN)-1-Methylimidazole)(4-(4-fluorophenyl)thiazolato-κN,κC2′)(η^6-p-cymene)osmium(II)] Nitrate] | – | – | – | 7.4 ± 2.3 | 2.7 ± 0.2 | 20 ± 2 | –
5 | Cc1ccc(C(C)C)cc1.Fc1ccc(-c2cscn2)[c]([Ru][Cl])c1 [Compound 1b] | 8.6 | 3.4 | 16 | – | – | – | –
6 | COc1ccc2[c](c1)[Ru-]([n+]1ccn(C)c1)[n+]1cscc1-2.Cc1ccc(C(C)C)cc1.O=[N+]([O-])[O-] [Compound 3e, [((3-κN)-1-Methylimidazole)(4-(4-methoxyphenyl)thiazolato-κN,κC2′)(η^6-p-cymene)ruthenium(II)] Nitrate] | – | – | – | 5.5 ± 2.2 | 1.8 ± 0.3 | 14 ± 1 | Solubility [7]: 15.6 mM; Cellular accumulation, fg Ru/cell [8]: 246 ± 47 fg Ru/cell
7 | COc1ccc(-c2cscn2)[c]([Ru][Cl])c1.Cc1ccc(C(C)C)cc1 [Compound 1e] | 17 | 7.3 | 27 | – | – | – | –
8 | Cc1ccc(C(C)C)cc1.Cc1ccc2[c](c1)[Os-]([n+]1ccn(C)c1)[n+]1cscc1-2.O=[N+]([O-])O [Compound 4d, [((3-κN)-1-Methylimidazole)(4-(4-methylphenyl)thiazolato-κN,κC2′)(η^6-p-cymene)osmium(II)] Nitrate] | – | – | – | 3.4 ± 0.9 | 1.2 ± 0.2 | 7.1 ± 0.6 | –
9 | Cc1ccc(C(C)C)cc1.Cn1cc[n+]([Os-]2[c]3cc(S(C)(=O)=O)ccc3-c3csc[n+]32)c1.O=[N+]([O-])[O-] [Compound 4c, [((3-κN)-1-Methylimidazole)(4-(4-(methylsulfonyl)phenyl)thiazolato-κN,κC2′)(η^6-p-cymene)osmium(II)] Nitrate] | – | – | – | > 200 | > 200 | > 200 | Effect on intracellular ROS levels [9]: initially lowers ROS levels; IC50 [10]: 344 ± 19 µM; IC50 [11]: > 200 µM
10 | COc1ccc2[c](c1)[Os-]([n+]1ccn(C)c1)[n+]1cscc1-2.Cc1ccc(C(C)C)cc1.O=[N+]([O-])O [Compound 4e, [((3-κN)-1-Methylimidazole)(4-(4-methoxyphenyl)thiazolato-κN,κC2′)(η^6-p-cymene)osmium(II)] Nitrate] | – | – | – | 8.1 ± 2.6 | 2.1 ± 0.5 | 24 ± 1 | –
11 | CS(=O)(=O)c1ccc(-c2cscn2)[c]([Os][Cl])c1.Cc1ccc(C(C)C)cc1 [Compound 2c] | 4.4 | 0.83 | 10 | – | – | – | –
12 | Cc1ccc(-c2cscn2)[c]([Os][Cl])c1.Cc1ccc(C(C)C)cc1 [Compound 2d] | 9.3 | 3.7 | 17 | – | – | – | –
13 | COc1ccc(-c2cscn2)[c]([Os][Cl])c1.Cc1ccc(C(C)C)cc1 [Compound 2e] | 7.1 | 2.2 | 14 | – | – | – | –
14 | Cc1ccc(C(C)C)cc1.Cn1cc[n+]([Os-]2[c]3ccccc3-c3csc[n+]32)c1.O=[N+]([O-])[O-] [Compound 4a, [((3-κN)-1-Methylimidazole)(4-phenylthiazolato-κN,κC2′)(η^6-p-cymene)osmium(II)] Nitrate] | – | – | – | 5.9 ± 1.9 | 2.3 ± 0.2 | 12 ± 1 | Effect on intracellular ROS levels [9]: initially lowers ROS levels; IC50 [10]: 9.4 ± 4.6 µM; IC50 [11]: 9.6 ± 1.2 µM
15 | CC(C)(C)OO [positive control, tert-butyl hydroperoxide, reference compound] | – | – | – | – | – | – | Elevation of ROS levels vs negative control ([9]; positive control): more than 3 fold
16 | Cc1ccc(C(C)C)cc1.Cc1ccc2[c](c1)[Ru-]([n+]1ccn(C)c1)[n+]1cscc1-2.O=[N+]([O-])[O-] [Compound 3d, [((3-κN)-1-Methylimidazole)(4-(4-methylphenyl)thiazolato-κN,κC2′)(η^6-p-cymene)ruthenium(II)] Nitrate] | – | – | – | 3.8 ± 0.3 | 1.61 ± 0.04 | 7.2 ± 1 | Solubility [7]: 8.92 mM; Cellular accumulation, fg Ru/cell [8]: 477 ± 47 fg Ru/cell; Stabilization of oligonucleotides (G4s or B-DNA) [12]: No stabilization

Reference: PMC12463534, “Exploring the Anticancer Properties of 4-Phenylthiazole-Based Ru(II) and Os(II) Metallacycles Featuring 1-Methylimidazole as N-Donor Functionality” (Bioinorganic Chemistry and Applications, 2025)
